“Also recorded” adds a separate entry of the source.
Tests used:
[1] = system: human naïve NKTs (CD161^+CD3^+); experiment: Cytokine/chemokine secretion by human naïve CD161+CD3+ NKTs co-cultured with autologous immature CD14+ DCs; type: cell-based; conditions: for IFN/IL-4 ratio (TH1/TH2 bias): normalized to DMSO control; for induction of IL-3, GM-CSF and IL-15 / secretion of IFN-γ: 10 μg/ml, 18 hour culture; for secretion of IFN-γ: compared with α-GalCer
BALB/c mice [2] = experiment: Expansion/activation of mouse splenocyte subpopulations 72 h after injection; type: in vivo; conditions: for B cell expansion: FIGS. 26E, 28E and 30E; for CD8^+/CD4^+ ratio: FIGS. 26H, 28H and 30H; for activation of B cells: IM route; for activation of B cells / total and mature DCs: compared with C1; for total and mature DCs: FIGS. 26B, 28B and 30B
[3] = system: syngeneic lung cancer (TC1) cells; experiment: Lung cancer model in mice (TC1, IV inoculation); type: in vivo, mouse; conditions: for anti-cancer efficacy compared with C1: IV administration
naïve CD161^+/CD3^+ NKTs = experiment: Human NKT TCR activation (phosphoproteins), glycolipid presented by HeLa, HeLa-CD1d or iDCs, 10 μg/ml; type: cell-based; conditions: for intracellular phospho-CD3ε / phospho-ERK1/2: 10 μg/ml
[4] = system: syngeneic breast cancer (4T1); experiment: Breast cancer model in mice (4T1, SubQ inoculation); type: in vivo, mouse
BALB/c mice [5] = experiment: Mouse serum cytokines/chemokines after IV, SubQ or IM injection; type: in vivo; conditions: for serum IL-2, IL-12, MIP-1β and MCP-1: IV administration
tetanus toxoid (TT) = conditions: mouse, in vivo
[6] = system: FLU-A virus serotype H1N1 (WSN); experiment: Influenza virus H1N1 (WSN) infection in BALB/c mice; conditions: mouse, in vivo
[7] = system: extracellular domain of the M2 protein of the H1N1 subtype of the Influenza A virus; conditions: mouse, in vivo
Sphingomonas capsulata = experiment: Antibacterial efficacy in Sphingomonas capsulata infected mice; type: in vivo, mouse; conditions: for CFU numbers in liver: 100 μg/kg IP, 24 hour after bacterial infection
Text: Sphingomonas capsulata is a common environmental bacterial strain that is found in many places such as the air and water. It can be easily identified on nutrient agar plates because of its yellow colony color. […] Since the antibacterial activities of glycolipid antigens are mediated through the activation of NKT cells by glycolipid bound-CD1-d molecules, evaluation of the antibacterial efficacies using the disease model of Sphingomonas capsulata infection will focus on the impact of the NKT mediated pathway that is activated by glycolipid bindings. Six to eight week old female C57BL/6 mice were injected IP with Sphingomonas capsulate cells. […] Twenty-four hours after bacterial infection, livers were removed from mice and homogenized. Colony formation units (CFU) of Sphingomonas capsulate in liver homogenates were determined by plating diluted samples on nutrient plates. Colonies were counted after incubation for 48 hours at 37° C. […] To confirm the antibacterial efficacies of these α-GalCer analogs, another study was conducted to repeat the study by treating infected mice with 50 μg/kg in the same disease model. […] Six to eight week old female C57BL/6 mice were injected IP with 5×10^8 Sphingomonas capsulate cells. Mice were grouped into treatment and control groups with 4-6 mice per group. Four hours after the infection, mice in the treatment group were injected IP with testing α-GalCer analogs at 50 or 100 μg/kg, and the control group mice were injected with same volumes of PBS. Twenty-four hours after bacterial infection, mice from all groups were sacrificed. Livers were removed from mice and homogenized in 0.9% NaCl, 0.02% Tween 80 using tissue homogenizers. Colony formation units (CFU) of Sphingomonas capsulate in liver homogenates were determined by plating diluted samples on nutrient plates. Colonies were counted after incubation for 48 hours at 37° C.

[8] = system: FLU-A virus serotype H1N1 (WSN); experiment: Cytopathetic effect / virus titer in MDCK cells infected with H1N1 (WSN); type: cell-based
Description: FIG. 60(A-B) show the cytopathetic effect (CPE) of Madin-Darby canine kidney (MDCK) cells in vitro. MDCK cells were pretreated with vehicle, α-GalCer or one of the α-GalCer analogs C13, C14 or C16 at 10 μg/ml for four hours, followed by infection with FLU-A virus serotype H1N1 (WSN) at 10TCID50.
BALB/c mice were treated via intranasal route with control, α-GalCer (C1) or the α-GalCer analogs C13, C14 or C16 at one hour prior to virus challenge with H1N1 (WSN). […] In general, certain α-GalCer analogs may exert direct anti-viral effects, or act indirectly via immune stimulation. […] MDCK cells were pretreated with vehicle, α-GalCer or one of the α-GalCer analogs C13, C14 or C16 at 10 μg/ml for four hours, followed by infection with FLU-A virus serotype H1N1 (WSN) at 10TCID50.

C57BL/6 mice = experiment: Expansion of NKT subsets in spleens of C57BL/6 mice; type: in vivo; conditions: C57BL/6 Wt, 72 h post IV injection, 0.1 μg per mouse
[9] = system: H5 of avian influenza viruses (pHA); type: in vivo, mouse; conditions: mouse, in vivo
[10] = system: primary naïve human iNKTs; experiment: Cytokine production by primary naïve human iNKTs cultured with autologous immature DCs; type: cell-based; conditions: compared with C11

Structure (SMILES): CCCCCCCCCCCCCCCCCCCCCCCCCC(=O)N[C@@H](CS[C@H]1O[C@H](CO)[C@H](O)[C@H](O)[C@H]1O)[C@H](O)[C@H](O)CCCCCCCCCCCCCC [C4]
- IFN/IL-4 ratio (TH1/TH2 bias) [1]: more TH2-biased

Structure (SMILES): CCCCCCCCCCCCCC[C@@H](O)[C@@H](O)[C@H](CO[C@H]1O[C@H](CO)[C@H](O)[C@H](O)[C@H]1O)NC(=O)CCCCCc1ccccc1 [C10]
- B cell expansion (BALB/c mice [2]): more active than C1
- induction of IL-3, GM-CSF and IL-15 [1]: greater induction of IL-3, granulocyte/macrophage colony-stimulating factor (GM-CSF), and IL-15
- anti-cancer efficacy compared with C1 [3]: significantly greater anti-cancer efficacy than C1

Structure (SMILES): CCCCCCCCCCCCCC[C@@H](O)[C@@H](O)[C@H](CO[C@H]1O[C@H](CO)[C@H](O)[C@H](O)[C@H]1O)NC(=O)CCCCCCCc1ccccc1 [C11]
- TCR activation (naïve CD161^+/CD3^+ NKTs; CD1d-dependent, HeLa-CD1d or DCs): stronger in TCR activation than compounds C1 and C17
- intracellular phospho-CD3ε (naïve CD161^+/CD3^+ NKTs; presented by DCs): 21.3 folds
- intracellular phospho-CD3ε (naïve CD161^+/CD3^+ NKTs; presented by HeLa-CD1d cells): 10 folds of control
- phospho-ERK1/2 (naïve CD161^+/CD3^+ NKTs; with DCs): 48.3 folds
- phospho-ERK1/2 (naïve CD161^+/CD3^+ NKTs; with HeLa-CD1d cells): 14.6 folds increase
- tumor size ([4]; 16 days after treatment): reduced tumor size
- tumor growth and survival compared to control ([4]; SubQ delivery): able to suppress tumor growth and prolong survival as compared to control
- CD8^+/CD4^+ ratio (BALB/c mice [2]): more potent than C1
- activation of B cells (BALB/c mice [2]): stronger activations of B cells than C1
- CD8^+ T cells (BALB/c mice [2]; SubQ route): more activity than C1
- B cell expansion/activation (BALB/c mice [2]; mouse, in vivo): significant activities
- NK and NKT expansion/activation (BALB/c mice [2]; mouse, in vivo): comparable activities as C1
- serum IL-2, IL-12, MIP-1β and MCP-1 (BALB/c mice [5]): striking rises in IL-2, IL-12, MIP-1β and MCP-1
- antibody response relative to conventional vaccine (tetanus toxoid (TT)): ~2 fold
- durability of adjuvant effects (tetanus toxoid (TT)): remarkably durable
- level of antibody after delayed boost compared with TT+Alum (tetanus toxoid (TT)): twice as high as those given TT+Alum
- induction of IL-3, GM-CSF and IL-15 [1]: greater induction of IL-3, granulocyte/macrophage colony-stimulating factor (GM-CSF), and IL-15
- secretion of IFN-γ [1]: significantly greater secretion of IFN-γ than α-GalCer
- survival [6]: significantly enhanced survival
- adjuvant effect (comparison) [7]: best adjuvant effect which was equivalent to complete Freund's adjuvant (CFA)
- titer relative to C1 [7]: 3 fold
- tumor nodules on the lung surface ([3]; sacrificed on day 16 after tumor inoculation): reduced number of tumor nodules on the lung surface
- antibacterial efficacies (CFU in liver) (Sphingomonas capsulata; 50 μg/kg): significant in comparison to the untreated group
- difference in the values of the CFU per gram liver among efficacious groups (Sphingomonas capsulata; 50 μg/kg): not statistically significant
- CFU numbers in liver (Sphingomonas capsulata): significantly lower than the control group

Structure (SMILES): CCCCCCCCCCCCCCCCCCCCCCCCCC(=O)N[C@@H](CO[C@H]1O[C@H](CO)[C@H](O)[C@H](O)[C@H]1O)[C@H](O)[C@H](O)CCCCc1ccccc1 [C12]
- total and mature DCs (BALB/c mice [2]): significantly greater rises in total and mature DCs than C1
- expansion/activation of NKs and NKTs (BALB/c mice [2]; FIGS. 26C-D, 28C-D and 30C-D): best capacity for expansion/activation of NKs and NKTs
- CD8^+ T cell expansion/activation (BALB/c mice [2]; FIGS. 26F, 28F and 30F): more active than C1
- activation of B cells (BALB/c mice [2]): stronger activations of B cells than C1
- IFN/IL-4 ratio (TH1/TH2 bias) [1]: more TH1-biased
- anti-cancer efficacy compared with C1 [3]: significantly greater anti-cancer efficacy than C1

Structure (SMILES): CCCCCCCCCCCCCC[C@@H](O)[C@@H](O)[C@H](CO[C@H]1O[C@H](CO)[C@H](O)[C@H](O)[C@H]1O)NC(=O)CCCCCCCCCCc1ccccc1 [C16]
- effects on survival compared with C1 ([4]; SubQ delivery): did not differ significantly from that of C1
- suppression of tumor size compared with C1 ([4]; SubQ delivery): significantly greater suppression of tumor size than C1
- tumor growth and survival compared to control ([4]; SubQ delivery): able to suppress tumor growth and prolong survival as compared to control
- total and mature DCs (BALB/c mice [2]): significantly greater rises in total and mature DCs than C1
- B cell expansion (BALB/c mice [2]): most effective in B cell expansion
- CD8^+/CD4^+ ratio (BALB/c mice [2]): more potent than C1
- activation of B cells (BALB/c mice [2]): stronger activations of B cells than C1
- expansion of splenocytes (BALB/c mice [2]; IV administration, 72 hours): greater potency than C1
- CD4^+ T cells (BALB/c mice [2]; SubQ route): more active over control
- CD8^+ T cells (BALB/c mice [2]; SubQ route): more activity than C1
- CD8^+ T cell expansion/activation (BALB/c mice [2]; mouse, in vivo): comparable activities as C1; also recorded: more active than C1
- NK and NKT expansion/activation (BALB/c mice [2]; mouse, in vivo): comparable activities as C1
- expansion/activation of NKs and NKTs (BALB/c mice [2]; mouse, in vivo): best capacity for expansion/activation of NKs and NKTs
- IFN-γ/IL-4 ratio (TH1/TH2 bias) (BALB/c mice [5]; 2 hours, IV route, compared with C1): less TH2 responses than C1
- serum IL-2, IL-12, MIP-1β and MCP-1 (BALB/c mice [5]): striking rises in IL-2, IL-12, MIP-1β and MCP-1
- serum level of IFN-γ (BALB/c mice [5]; IV route, over 72 hours): level of activity close to that of C1
- induction of IL-3, GM-CSF and IL-15 [1]: greater induction of IL-3, granulocyte/macrophage colony-stimulating factor (GM-CSF), and IL-15
- secretion of IFN-γ [1]: significantly greater secretion of IFN-γ than α-GalCer
- cumulative proportion of survival ([6]; ip): prolonged survival
- anti-cancer efficacy compared with C1 [3]: significantly greater anti-cancer efficacy than C1
- entry/replication of H1N1 virus (virus titer) [8]: slight inhibition of the entry/replication of H1N1 virus in vitro
- antibacterial efficacies (CFU in liver) (Sphingomonas capsulata; 50 μg/kg): significant in comparison to the untreated group
- CFU numbers in liver (Sphingomonas capsulata): significantly lower than the control group

Structure (SMILES): CCCCCCCCCCCCCC[C@@H](O)[C@@H](O)[C@H](CO[C@H]1O[C@H](CO)[C@H](O)[C@H](O)[C@H]1O)NC(=O)CCCCCCCCCCc1ccc(-c2ccccc2)cc1 [C26]
- total number of NKTs and its two subtypes NKT1 and NKT2 (C57BL/6 mice): increase of total number of NKTs
- adjuvant activities in enhancing the anti-HAc antibody titer [9]: better adjuvant activities than the others in enhancing the antibody titer
- anti-HA-specific IgG antibody [9]: enhanced
- effectiveness as adjuvant [9]: particularly effective as adjuvants
- IFN-γ/IL4 ratio [10]: higher IFN-γ/IL4 ratio
- IL-2 [10]: higher levels of IL-2
